Positions of bridges follow the written chain, without caps; N, C: chain ends. Non-standard residues stand in square brackets, D forms with d. Residues, ends and D or L forms follow the SMILES beside them. pGlu = O=C1CC[C@@H](C(=O)O)N1

The subject of data set [1] is murine cerebrocortical neuron cells. In words: Effect on neuronal Ca2+ oscillations, peptide alone. In kind it is cell-based, mouse. To be noted: ASPA alone, without veratridine.
Data set [2] concerns the target voltage-gated Na+ (NaV1.2) channel (Homo sapiens, UniProt Q99250). Description: Voltage-gated Na+ channel inhibition/activation. In kind it is cell-based. To be noted: ASPA administered alone, up to micromolar concentrations.
Data set [3] has as its target voltage-gated Ca2+ (Cav1.2) channel (Homo sapiens, UniProt Q13936). In words: Voltage-gated Ca2+ channel inhibition/activation. In kind it is cell-based. To be noted: ASPA administered alone, up to micromolar concentrations.
The test system of data set [4] is veratridine binding site of the VGSC (neurotoxin site 2).
The test system of data set [5] is neuraminidase from Arthrobacter ureafaciens. Description: Neuraminidase inhibition. In kind it is biochemical. The following applies: Arthrobacter ureafaciens enzyme; up to 50 μM.
Data set [6] deals with neuraminidase from Clostridium perfringens. In kind it is biochemical.
Data set [7] deals with neuraminidase from Vibrio cholera (Vibrio cholerae serotype O1, UniProt P0C6E9). In words: Neuraminidase inhibition. The class given is biochemical. To be noted: Vibrio cholera enzyme; up to 50 μM.
Sequence of neuraminidase from Vibrio cholera (P0C6E9 25-781): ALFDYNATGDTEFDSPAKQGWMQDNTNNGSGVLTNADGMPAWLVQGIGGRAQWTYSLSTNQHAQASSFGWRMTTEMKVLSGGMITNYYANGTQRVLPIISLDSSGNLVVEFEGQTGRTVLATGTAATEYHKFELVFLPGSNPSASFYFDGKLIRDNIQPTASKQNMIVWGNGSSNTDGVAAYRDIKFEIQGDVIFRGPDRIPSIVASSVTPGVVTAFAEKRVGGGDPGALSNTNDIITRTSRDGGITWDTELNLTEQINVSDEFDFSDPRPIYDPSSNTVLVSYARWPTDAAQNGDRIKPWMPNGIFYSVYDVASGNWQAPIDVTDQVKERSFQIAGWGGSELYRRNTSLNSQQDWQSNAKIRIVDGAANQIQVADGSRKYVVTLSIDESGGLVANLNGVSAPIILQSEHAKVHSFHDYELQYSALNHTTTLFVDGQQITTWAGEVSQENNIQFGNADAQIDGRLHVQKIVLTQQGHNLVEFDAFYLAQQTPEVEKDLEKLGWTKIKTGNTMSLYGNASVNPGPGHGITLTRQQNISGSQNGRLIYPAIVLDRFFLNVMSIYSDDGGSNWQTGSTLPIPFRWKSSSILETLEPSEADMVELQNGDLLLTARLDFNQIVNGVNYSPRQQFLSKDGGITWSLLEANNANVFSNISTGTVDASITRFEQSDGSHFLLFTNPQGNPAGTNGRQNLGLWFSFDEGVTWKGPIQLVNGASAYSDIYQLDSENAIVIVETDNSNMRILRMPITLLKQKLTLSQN
Data set [8] deals with T1, neuraminidase from Micromonospora viridifaciens (Micromonospora viridifaciens, UniProt Q02834).
T1 sequence (Q02834 38-647): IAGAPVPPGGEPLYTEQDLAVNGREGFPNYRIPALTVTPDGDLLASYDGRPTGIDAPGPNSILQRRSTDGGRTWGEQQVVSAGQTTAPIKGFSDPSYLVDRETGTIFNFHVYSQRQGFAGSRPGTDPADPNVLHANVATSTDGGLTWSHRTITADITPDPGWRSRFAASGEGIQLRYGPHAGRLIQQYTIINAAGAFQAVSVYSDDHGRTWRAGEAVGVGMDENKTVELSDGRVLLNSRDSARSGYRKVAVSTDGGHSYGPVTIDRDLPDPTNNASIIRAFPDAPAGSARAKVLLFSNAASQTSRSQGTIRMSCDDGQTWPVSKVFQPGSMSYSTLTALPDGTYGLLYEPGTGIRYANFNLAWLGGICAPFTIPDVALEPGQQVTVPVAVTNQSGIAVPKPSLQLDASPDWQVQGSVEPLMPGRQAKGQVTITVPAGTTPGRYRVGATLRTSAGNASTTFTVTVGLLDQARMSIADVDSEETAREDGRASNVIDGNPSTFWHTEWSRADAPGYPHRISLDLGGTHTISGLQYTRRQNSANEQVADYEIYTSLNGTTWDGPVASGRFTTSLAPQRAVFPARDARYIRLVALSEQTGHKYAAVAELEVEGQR
Description: Neuraminidase inhibition. In kind it is biochemical. The following applies: Micromonospora viridifaciens enzyme; up to 50 μM.

Data set [9] concerns neuraminidase from recombinant influenza A virus H1N1. In words: Neuraminidase inhibition. In kind it is biochemical. The following applies: recombinant influenza A virus H1N1 enzyme; up to 50 μM.
A further data set concerns the target proteinase K (Parengyodontium album, UniProt P06873). In words: Proteolytic stability against proteinase K. In kind it is in vitro ADME. The following applies: proteinase K from Tritirachium album; 50 °C, up to 48 h.
Another data set concerns the target T2, thermolysin (Bacillus thermoproteolyticus, UniProt P00800).
T2 sequence (P00800 233-548): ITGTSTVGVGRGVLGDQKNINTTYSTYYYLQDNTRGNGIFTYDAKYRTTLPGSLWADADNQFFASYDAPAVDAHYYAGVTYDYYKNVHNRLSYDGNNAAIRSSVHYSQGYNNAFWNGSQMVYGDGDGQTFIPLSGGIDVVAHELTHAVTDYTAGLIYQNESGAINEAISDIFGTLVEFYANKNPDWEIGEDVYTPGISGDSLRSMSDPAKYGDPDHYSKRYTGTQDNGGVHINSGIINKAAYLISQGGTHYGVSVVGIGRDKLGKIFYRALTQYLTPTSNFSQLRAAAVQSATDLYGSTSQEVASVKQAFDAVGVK
Description: Proteolytic stability against thermolysin. In kind it is in vitro ADME. To be noted: thermolysin from Bacillus thermoprotelyticus rokko; 65 °C, up to 12 h.

In the next data set the test system is mice. Description: Toxicity in mice. In kind it is in vivo. The following applies: i.p. 40 μg/g.
The subject of another data set is chicks. Description: Toxicity in chicks. In kind it is in vivo. To be noted: i.c.v. 60 μg/g.
Another data set has as its system bacterial neuraminidases. The following applies: cited from earlier work.

Sequence of proteinase K (P06873 106-384): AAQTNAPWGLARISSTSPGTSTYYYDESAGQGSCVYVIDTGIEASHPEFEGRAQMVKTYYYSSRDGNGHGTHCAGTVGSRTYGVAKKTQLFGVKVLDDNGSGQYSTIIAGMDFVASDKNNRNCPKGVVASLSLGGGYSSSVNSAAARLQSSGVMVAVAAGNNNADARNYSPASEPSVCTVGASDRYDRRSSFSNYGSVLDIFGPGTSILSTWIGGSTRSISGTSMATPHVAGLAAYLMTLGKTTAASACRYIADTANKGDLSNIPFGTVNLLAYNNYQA
Sequence of voltage-gated Ca2+ (Cav1.2) channel (Q13936 whole entry): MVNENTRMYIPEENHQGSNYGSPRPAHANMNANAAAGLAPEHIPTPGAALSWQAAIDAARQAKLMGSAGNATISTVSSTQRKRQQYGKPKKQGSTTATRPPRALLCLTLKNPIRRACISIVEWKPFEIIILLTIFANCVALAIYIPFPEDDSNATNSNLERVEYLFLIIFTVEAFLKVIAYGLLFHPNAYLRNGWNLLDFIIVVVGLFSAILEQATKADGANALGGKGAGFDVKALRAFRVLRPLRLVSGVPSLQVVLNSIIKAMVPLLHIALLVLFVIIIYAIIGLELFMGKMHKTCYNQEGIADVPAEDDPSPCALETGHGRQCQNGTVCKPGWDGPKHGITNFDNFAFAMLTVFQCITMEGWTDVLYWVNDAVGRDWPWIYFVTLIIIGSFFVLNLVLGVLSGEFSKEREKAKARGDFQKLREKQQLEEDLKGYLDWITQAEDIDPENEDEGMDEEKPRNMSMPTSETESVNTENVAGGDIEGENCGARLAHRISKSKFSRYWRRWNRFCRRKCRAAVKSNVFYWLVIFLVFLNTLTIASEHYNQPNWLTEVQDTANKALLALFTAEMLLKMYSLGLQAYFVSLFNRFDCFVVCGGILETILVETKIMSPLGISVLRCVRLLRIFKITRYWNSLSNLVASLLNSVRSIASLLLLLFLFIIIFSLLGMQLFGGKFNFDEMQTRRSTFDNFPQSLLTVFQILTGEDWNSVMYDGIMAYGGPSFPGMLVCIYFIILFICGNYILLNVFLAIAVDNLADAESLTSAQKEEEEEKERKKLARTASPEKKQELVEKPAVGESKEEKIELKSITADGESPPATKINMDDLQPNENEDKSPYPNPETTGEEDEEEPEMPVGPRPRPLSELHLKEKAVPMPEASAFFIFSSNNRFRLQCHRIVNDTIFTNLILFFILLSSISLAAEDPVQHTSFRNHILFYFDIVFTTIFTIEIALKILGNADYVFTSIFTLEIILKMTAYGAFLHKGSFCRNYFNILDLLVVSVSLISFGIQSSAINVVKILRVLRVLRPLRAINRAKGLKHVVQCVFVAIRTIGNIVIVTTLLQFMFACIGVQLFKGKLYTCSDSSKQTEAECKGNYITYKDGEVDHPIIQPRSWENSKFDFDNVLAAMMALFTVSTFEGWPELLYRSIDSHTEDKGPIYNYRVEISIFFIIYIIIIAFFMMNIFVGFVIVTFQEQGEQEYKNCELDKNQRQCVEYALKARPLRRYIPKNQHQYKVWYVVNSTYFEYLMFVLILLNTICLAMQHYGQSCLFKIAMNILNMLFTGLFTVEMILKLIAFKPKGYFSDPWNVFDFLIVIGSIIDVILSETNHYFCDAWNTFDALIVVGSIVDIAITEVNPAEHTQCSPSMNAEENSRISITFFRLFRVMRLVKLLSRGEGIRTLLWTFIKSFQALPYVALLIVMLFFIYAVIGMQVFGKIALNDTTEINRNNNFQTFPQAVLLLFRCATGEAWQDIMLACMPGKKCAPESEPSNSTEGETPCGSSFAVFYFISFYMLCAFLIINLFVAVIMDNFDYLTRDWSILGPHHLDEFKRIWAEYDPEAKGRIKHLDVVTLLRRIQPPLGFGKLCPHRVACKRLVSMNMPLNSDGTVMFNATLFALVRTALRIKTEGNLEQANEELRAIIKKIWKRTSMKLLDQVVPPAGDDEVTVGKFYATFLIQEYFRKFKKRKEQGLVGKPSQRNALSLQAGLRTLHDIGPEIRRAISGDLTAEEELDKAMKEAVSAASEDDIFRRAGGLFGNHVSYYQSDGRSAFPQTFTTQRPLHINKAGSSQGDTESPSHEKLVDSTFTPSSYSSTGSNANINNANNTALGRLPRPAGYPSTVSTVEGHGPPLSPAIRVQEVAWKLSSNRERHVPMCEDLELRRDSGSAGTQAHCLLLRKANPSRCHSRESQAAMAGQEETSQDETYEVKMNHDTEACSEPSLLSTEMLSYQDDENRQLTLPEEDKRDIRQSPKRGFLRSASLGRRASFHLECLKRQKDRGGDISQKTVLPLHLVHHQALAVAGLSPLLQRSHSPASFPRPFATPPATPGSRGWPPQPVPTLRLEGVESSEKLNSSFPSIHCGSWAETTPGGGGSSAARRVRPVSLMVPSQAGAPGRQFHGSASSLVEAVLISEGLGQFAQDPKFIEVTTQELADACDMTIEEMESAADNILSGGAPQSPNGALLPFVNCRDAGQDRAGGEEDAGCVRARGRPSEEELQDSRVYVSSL

For `CC[C@H](C)[C@@H]1NC(=O)[C@@H]2CSSC[C@@H]3NC(=O)[C@H](CO)NC(=O)[C@H](CCC(=O)O)NC(=O)CNC(=O)[C@H](CCC(=O)O)NC(=O)[C@H](Cc4ccccc4)NC(=O)[C@H](C)NC(=O)[C@@H](NC(=O)CNC(=O)[C@@H]4CCC(=O)N4)CSSC[C@H](NC(=O)[C@H](CSSC[C@@H](C(=O)N[C@@H](Cc4ccc(O)cc4)C(=O)N[C@@H](Cc4ccc(O)cc4)C(=O)N[C@@H](CC(C)C)C(=O)O)NC(=O)[C@H]([C@@H](C)O)NC(=O)CNC(=O)[C@H](CC(=O)O)NC(=O)[C@@H]4CCCN4C(=O)[C@H](CC(N)=O)NC(=O)CNC(=O)[C@@H]4CCCN4C1=O)NC(=O)[C@@H]1CCCN1C(=O)[C@H](Cc1ccc(O)cc1)NC(=O)[C@H](Cc1ccccc1)NC(=O)[C@H](CCC(N)=O)NC(=O)[C@H](C(C)C)NC(=O)[C@H](CC(N)=O)NC3=O)C(=O)N1CCC[C@H]1C(=O)NCC(=O)N[C@@H](CC(C)C)C(=O)NCC(=O)N[C@@H](CC(C)C)C(=O)N[C@@H]([C@@H](C)O)C(=O)N2` [ASPA, Asteropsin A] ([pGlu]GCAFEGESCNVQFYPCCPGLGLTCIPGNPDGTCYYL-OH; disulfide 3-18, 10-25, 17-34; C-terminus assumed), the “Effect on oscillation frequency or amplitude of neuronal Ca2+ currents” value in data set [1] is recorded as “did not modify”. The “Inhibition or activation of NaV1.2” value in [2] is recorded as “Neither the inhibition nor the activation”. Further, the “Inhibition or activation of Cav1.2” value in data set [3] is “Neither the inhibition nor the activation”. Moreover, the “Allosteric interaction with the veratridine binding site of the VGSC” value in data set [4] is “not observed”. For the same compound, the Neuraminidase inhibition entry in data set [5], in data set [6], in data set [7], in data set [8] and in [9] was “no inhibition” in each case. Besides, the “Proteolytic stability against proteinase K” value on proteinase K is “extraordinary proteolytic stability”. On thermolysin, the “Proteolytic stability against thermolysin” value was “extraordinary proteolytic stability”. The “Toxicity or behavior changes” value in the data set on mice and in the data set with chicks was “no toxicity or behavior changes were observed” in each case.

Take asteropine A [APA]: the “Inhibition of bacterial neuraminidases” value in the data set with bacterial neuraminidases was “potent competitive inhibitor”.

Source of the values: article PMC4137556 (Biochimica et biophysica acta, 2013).
